Type in all cases: cell-based
Assay [1] has as its system HCT15 (colon adenocarcinoma). Description: In vitro cytotoxicity, sulforhodamine B (SRB) method, HCT15. Conditions: Homo sapiens; HCT-15, SRB method; read-out: cytotoxicity (ED50) HCT-15. The procedure:
(§1) The chalcone derivatives of the present invention were evaluated for in vitro cytotoxicity against human carcinoma cell lines using a sulforhodamine B (SRB) method, which was developed in 1989 by the National Cancer Institute (NCI), USA.
(§2) HCT15 (colon adenocarcinoma; ATCC CCL-225), PC-3 (prostate adenocarcinoma; ATCC CRL-1435), and A-549 (lung carcinoma; ATCC CCL-185) cell lines were used. All of these carcinoma cells were sub-cultured at the Korean Research Institute of Bioscience and Biotechnology (KRIBB), Korea.
(§3) The human carcinoma cell lines were cultured in 10% FCS-containing RPMI 1640 medium (Gibco Cat. No. 31800) in an incubator at 37° C. under 5% CO2, and sub-cultured twice per week.
(§4) Cells were detached from the attached surface using 0.25% Trypsin (Sigma) and 3 mM CDTA (1,2-cyclohexane diamine tetraacetic acid, Sigma) in phosphate buffered saline (PBS, Sigma).
(§5) Compounds to be tested (the chalcone derivatives set forth in Table 1) were dissolved in a small amount of dimethylsulfoxide (DMSO, Sigma), and diluted in culture medium to a desired concentration. The final concentration of DMSO was less than 0.5%. The diluted compounds (final concentration: 30, 10, 3, 1 and 0.3 μg/ml) were sterilized through a 0.22-μm microfilter (Millipore). The cytotoxicity of the compounds to human carcinoma cell lines was assessed using a typical SRB method.
(In general: Sulforhodamine B stains cellular protein and so reports cell mass.)

Another assay deals with A-549 (lung carcinoma). The assay can be described thus: In vitro cytotoxicity, sulforhodamine B (SRB) method, A-549. Conditions: Homo sapiens, A549; A-549, SRB method; read-out: cytotoxicity (ED50) A-549. The procedure: as §1, §2, §3, §4, §5
The subject of assay [2] is PC-3 (prostate adenocarcinoma). Description: In vitro cytotoxicity, sulforhodamine B (SRB) method, PC-3. Conditions: Homo sapiens; PC-3, SRB method; read-out: cytotoxicity (ED50) PC-3. The procedure: as §1, §2, §3, §4, §5

Molecules are shown by their SMILES. Values after ≈ are worked out from the molar mass of the structure shown.

The text below walks through data of patent publication US9072698B2, “Method for screening anti-cancer compounds inhibiting function of TM4SF5 and anti-cancer composition containing chalcone compounds” (Seoul National University Industry Foundation, priority 2006, dated 2015).

Turning to `Cc1ccc(S(=O)(=O)Nc2ccc(C(=O)/C=C/c3cccc(O)c3)cc2)cc1` [Compound 2, 4′-(p-toluenesulfonylamino)-3-hydroxychalcone], the results for the IC50 (in assay [1]; with A-549 (lung carcinoma); in assay [2]) were 37 µg/mL (≈ 94 µM), 36 µg/mL (≈ 91.5 µM) and 39 µg/mL (≈ 99.1 µM), respectively.
In the case of `Cc1ccc(S(=O)(=O)Nc2ccc(C(=O)/C=C/c3ccccc3O)cc2)cc1` [Compound 3, 4′-(p-toluenesulfonylamino)-2-hydroxychalcone], the IC50 was 40 µg/mL (≈ 102 µM) in assay [1], 35 µg/mL (≈ 89 µM) in the assay on A-549 (lung carcinoma) and 37 µg/mL (≈ 94 µM) in assay [2].
For `Cc1ccc(S(=O)(=O)Nc2cccc(C(=O)/C=C/c3ccc(O)cc3)c2)cc1` [Compound 4, 3′-(p-toluenesulfonylamino)-4-hydroxychalcone], in that order: 38 µg/mL (≈ 96.6 µM), 34 µg/mL (≈ 86.4 µM) and 37 µg/mL (≈ 94 µM).
`Cc1ccc(S(=O)(=O)Nc2ccccc2C(=O)/C=C/c2ccc(O)cc2)cc1` [Compound 5, 2′-(p-toluenesulfonylamino)-4-hydroxychalcone]: the IC50 in assay [1] is 42 µg/mL (≈ 107 µM); with A-549 (lung carcinoma), 40 µg/mL (≈ 102 µM); in assay [2], 47 µg/mL (≈ 119 µM).
For `O=C(/C=C/c1ccc(O)cc1)c1ccc(NS(=O)(=O)c2ccc(O)cc2)cc1` [Compound 6, 4′-(p-hydroxybenzenesulfonylamino)-4-hydroxychalcone], the IC50 in assay [1] is 37 µg/mL (≈ 93.6 µM); with A-549 (lung carcinoma) it was 41 µg/mL (≈ 104 µM); in assay [2] it was 33 µg/mL (≈ 83.5 µM).
Taken in the same sequence, the figures for `O=C(/C=C/c1cccc(O)c1)c1ccc(NS(=O)(=O)c2ccc(O)cc2)cc1` [Compound 7, 4′-(p-hydroxybenzenesulfonylamino)-3-hydroxychalcone] were 33 µg/mL (≈ 83.5 µM), 30 µg/mL (≈ 75.9 µM) and 37 µg/mL (≈ 93.6 µM).
As for `O=C(/C=C/c1ccccc1O)c1ccc(NS(=O)(=O)c2ccc(O)cc2)cc1` [Compound 8, 4′-(p-hydroxybenzenesulfonylamino)-2-hydroxychalcone], the IC50 was determined as 30 µg/mL (≈ 75.9 µM) in assay [1], 31 µg/mL (≈ 78.4 µM) in the assay on A-549 (lung carcinoma) and 34 µg/mL (≈ 86 µM) in assay [2].
As to `O=C(/C=C/c1ccc(O)cc1)c1cccc(NS(=O)(=O)c2ccc(O)cc2)c1` [Compound 9, 3′-(p-hydroxybenzenesulfonylamino)-4-hydroxychalcone], the IC50 in assay [1] was determined as 24 µg/mL (≈ 60.7 µM); in the assay with A-549 (lung carcinoma), 40 µg/mL (≈ 101 µM); in assay [2], 31 µg/mL (≈ 78.4 µM).
In the case of `O=C(/C=C/c1cccc(O)c1)c1cccc(NS(=O)(=O)c2ccc(O)cc2)c1` [Compound 10, 3′-(p-hydroxybenzenesulfonylamino)-3-hydroxychalcone], the results for the IC50 (in assay [1]; with A-549 (lung carcinoma); in assay [2]) were 30 µg/mL (≈ 75.9 µM), 30 µg/mL (≈ 75.9 µM) and 32 µg/mL (≈ 80.9 µM), respectively.
On to `O=C(/C=C/c1ccccc1O)c1cccc(NS(=O)(=O)c2ccc(O)cc2)c1` [Compound 11, 3′-(p-hydroxybenzenesulfonylamino)-2-hydroxychalcone], for which the IC50 was 39 µg/mL (≈ 98.6 µM) in assay [1], 38 µg/mL (≈ 96.1 µM) in the assay with A-549 (lung carcinoma) and 41 µg/mL (≈ 104 µM) in assay [2].
`O=C(/C=C/c1ccc(O)cc1)c1ccccc1NS(=O)(=O)c1ccc(O)cc1` [Compound 12, 2′-(p-hydroxybenzenesulfonylamino)-4-hydroxychalcone]: the IC50 in assay [1] was found to be 37 µg/mL (≈ 93.6 µM); in the assay with A-549 (lung carcinoma), 35 µg/mL (≈ 88.5 µM); in assay [2] it was 37 µg/mL (≈ 93.6 µM).
Turning to `O=C(/C=C/c1cccc(O)c1)c1ccccc1NS(=O)(=O)c1ccc(O)cc1` [Compound 13, 2′-(p-hydroxybenzenesulfonylamino)-3-hydroxychalcone], the IC50 came out at 38 µg/mL (≈ 96.1 µM) in assay [1], 36 µg/mL (≈ 91 µM) in the assay with A-549 (lung carcinoma) and 41 µg/mL (≈ 104 µM) in assay [2].
Take `O=C(/C=C/c1ccccc1O)c1ccccc1NS(=O)(=O)c1ccc(O)cc1` [Compound 14, 2′-(p-hydroxybenzenesulfonylamino)-2-hydroxychalcone]: the IC50 in assay [1] was 38 µg/mL (≈ 96.1 µM); with A-549 (lung carcinoma), 31 µg/mL (≈ 78.4 µM); in assay [2], 29 µg/mL (≈ 73.3 µM).
In the case of `O=C(/C=C/c1ccc(O)cc1)c1ccc(NS(=O)(=O)c2cccc(O)c2)cc1` [Compound 15, 4′-(m-hydroxybenzenesulfonylamino)-4-hydroxychalcone], the IC50 in assay [1] was 33 µg/mL (≈ 83.5 µM); in the assay on A-549 (lung carcinoma), 43 µg/mL (≈ 109 µM); in assay [2] it was 41 µg/mL (≈ 104 µM).
For `O=C(/C=C/c1cccc(O)c1)c1ccc(NS(=O)(=O)c2cccc(O)c2)cc1` [Compound 16, 4′-(m-hydroxybenzenesulfonylamino)-3-hydroxychalcone], the IC50 in assay [1] was found to be 37 µg/mL (≈ 93.6 µM); in the assay on A-549 (lung carcinoma), 33 µg/mL (≈ 83.5 µM); in assay [2], 47 µg/mL (≈ 119 µM).
Taken in the same sequence, the figures for `O=C(/C=C/c1ccccc1O)c1ccc(NS(=O)(=O)c2cccc(O)c2)cc1` [Compound 17, 4′-(m-hydroxybenzenesulfonylamino)-2-hydroxychalcone] were 32 µg/mL (≈ 80.9 µM), 33 µg/mL (≈ 83.5 µM) and 44 µg/mL (≈ 111 µM).
With `O=C(/C=C/c1ccc(O)cc1)c1cccc(NS(=O)(=O)c2cccc(O)c2)c1` [Compound 18, 3′-(m-hydroxybenzenesulfonylamino)-4-hydroxychalcone], the IC50 in assay [1] was 33 µg/mL (≈ 83.5 µM); with A-549 (lung carcinoma), 31 µg/mL (≈ 78.4 µM); in assay [2], 39 µg/mL (≈ 98.6 µM).
For `O=C(/C=C/c1cccc(O)c1)c1cccc(NS(=O)(=O)c2cccc(O)c2)c1` [Compound 19, 3′-(m-hydroxybenzenesulfonylamino)-3-hydroxychalcone], the figures for the IC50 (in assay [1]; with A-549 (lung carcinoma); in assay [2]) were 38 µg/mL (≈ 96.1 µM), 47 µg/mL (≈ 119 µM) and 53 µg/mL (≈ 134 µM), respectively.
For the compound `O=C(/C=C/c1ccccc1O)c1cccc(NS(=O)(=O)c2cccc(O)c2)c1` [Compound 20, 3′-(m-hydroxybenzenesulfonylamino)-2-hydroxychalcone], the IC50 was determined as 40 µg/mL (≈ 101 µM) in assay [1], 35 µg/mL (≈ 88.5 µM) in the assay with A-549 (lung carcinoma) and 39 µg/mL (≈ 98.6 µM) in assay [2].
For `O=C(/C=C/c1ccc(O)cc1)c1ccccc1NS(=O)(=O)c1cccc(O)c1` [Compound 21, 2′-(m-hydroxybenzenesulfonylamino)-4-hydroxychalcone], in that order: 31 µg/mL (≈ 78.4 µM), 39 µg/mL (≈ 98.6 µM) and 43 µg/mL (≈ 109 µM).
For the compound `O=C(/C=C/c1cccc(O)c1)c1ccccc1NS(=O)(=O)c1cccc(O)c1` [Compound 22, 2′-(m-hydroxybenzenesulfonylamino)-3-hydroxychalcone], the figures for the IC50 (in assay [1]; with A-549 (lung carcinoma); in assay [2]) were 28 µg/mL (≈ 70.8 µM), 27 µg/mL (≈ 68.3 µM) and 45 µg/mL (≈ 114 µM), respectively.
Take `O=C(/C=C/c1ccccc1O)c1ccccc1NS(=O)(=O)c1cccc(O)c1` [Compound 23, 2′-(m-hydroxybenzenesulfonylamino)-2-hydroxychalcone]: the IC50 in assay [1] was determined as 35 µg/mL (≈ 88.5 µM); with A-549 (lung carcinoma), 31 µg/mL (≈ 78.4 µM); in assay [2], 37 µg/mL (≈ 93.6 µM).
As for `O=C(/C=C/c1ccc(O)cc1)c1ccc(NS(=O)(=O)c2ccc(F)cc2)cc1` [Compound 24, 4′-(p-fluorobenzensulfonylamino)-4-hydroxychalcone], the figures for the IC50 (in assay [1]; in the assay on A-549 (lung carcinoma); in assay [2]) were 55 µg/mL (≈ 138 µM), 50 µg/mL (≈ 126 µM) and 51 µg/mL (≈ 128 µM), respectively.
As to `O=C(/C=C/c1ccc(O)cc1)c1ccc(NS(=O)(=O)c2cccc(F)c2)cc1` [Compound 25, 4′-(m-fluorobenzensulfonylamino)-4-hydroxychalcone], the IC50 was 54 µg/mL (≈ 136 µM) in assay [1], 51 µg/mL (≈ 128 µM) in the assay with A-549 (lung carcinoma) and 57 µg/mL (≈ 143 µM) in assay [2].
Regarding `O=C(/C=C/c1ccc(O)cc1)c1ccc(NS(=O)(=O)c2ccccc2F)cc1` [Compound 26, 4′-(o-fluorobenzensulfonylamino)-4-hydroxychalcone], the values for the IC50 (in assay [1]; in the assay on A-549 (lung carcinoma); in assay [2]) were 22 µg/mL (≈ 55.4 µM), 20 µg/mL (≈ 50.3 µM) and 28 µg/mL (≈ 70.5 µM), respectively.
Take `O=C(/C=C/c1ccc(O)cc1)c1ccc(NS(=O)(=O)c2ccc([N+](=O)[O-])cc2)cc1` [Compound 27, 4′-(p-nitrobenzensulfonylamino)-4-hydroxychalcone]: the IC50 in assay [1] is 41 µg/mL (≈ 96.6 µM); in the assay with A-549 (lung carcinoma), 34 µg/mL (≈ 80.1 µM); in assay [2], 47 µg/mL (≈ 111 µM).
Turning to `O=C(/C=C/c1ccc(O)cc1)c1ccc(NS(=O)(=O)c2cccc([N+](=O)[O-])c2)cc1` [Compound 28, 4′-(m-nitrobenzensulfonylamino)-4-hydroxychalcone], the IC50 amounted to 54 µg/mL (≈ 127 µM) in assay [1], 59 µg/mL (≈ 139 µM) with A-549 (lung carcinoma) and 57 µg/mL (≈ 134 µM) in assay [2].
`O=C(/C=C/c1ccc(O)cc1)c1ccc(NS(=O)(=O)c2ccccc2[N+](=O)[O-])cc1` [Compound 29, 4′-(o-nitrobenzensulfonylamino)-4-hydroxychalcone]: the IC50 in assay [1] came out at 29 µg/mL (≈ 68.3 µM); in the assay on A-549 (lung carcinoma) it was 37 µg/mL (≈ 87.2 µM); in assay [2] it was 21 µg/mL (≈ 49.5 µM).
Turning to `Nc1ccc(S(=O)(=O)Nc2ccc(C(=O)/C=C/c3ccc(O)cc3)cc2)cc1` [Compound 30, 4′-(p-aminobenzensulfonylamino)-4-hydroxychalcone], the values for the IC50 (in assay [1]; with A-549 (lung carcinoma); in assay [2]) were 52 µg/mL (≈ 132 µM), 50 µg/mL (≈ 127 µM) and 59 µg/mL (≈ 150 µM), respectively.
Regarding `Nc1cccc(S(=O)(=O)Nc2ccc(C(=O)/C=C/c3ccc(O)cc3)cc2)c1` [Compound 31, 4′-(m-aminobenzensulfonylamino)-4-hydroxychalcone], the results for the IC50 (in assay [1]; in the assay on A-549 (lung carcinoma); in assay [2]) were 24 µg/mL (≈ 60.8 µM), 34 µg/mL (≈ 86.2 µM) and 27 µg/mL (≈ 68.4 µM), respectively.
Consider `Nc1ccccc1S(=O)(=O)Nc1ccc(C(=O)/C=C/c2ccc(O)cc2)cc1` [Compound 32, 4′-(o-aminobenzensulfonylamino)-4-hydroxychalcone], for which the IC50 turned out to be 47 µg/mL (≈ 119 µM) in assay [1], 45 µg/mL (≈ 114 µM) with A-549 (lung carcinoma) and 41 µg/mL (≈ 104 µM) in assay [2].
